In patent US20230202997A1, “CHROMANOL, QUINONE OR HYDROQUINONE COMPOUNDS FOR TREATMENT OF SEPSIS” (Sulfateq B.V., priority 2020, published 2023):

Assays:
IL-6 mRNA expression [1] = test: Endothelial inflammatory activation after endotoxin, IL-6 mRNA (Example 5); assay type: cell-based, Human; settings: HUVEC; 10 μM for 30 min
Method: (§1) Human Umbilical Cord Endothelial Cells (HUVEC, Lonza CC-2519) were maintained on 1% gelatin-coated culture flasks in RPMI1640 medium containing 20% fetal bovine serum, 2 mM Glutamine (Sigma-Aldrich), 1% Penicillin-Streptomycin solution (Sigma-Aldrich) and 50 μg/ml Bovine Pituitary Extract (Invitrogen). HUVEC were passaged by trypsinization when the cultures reach a confluency of 70%. For all experiments, HUVEC were seeded at 0.6·10^5 cells/cm^2 and allowed to adhere for 24 hours.
(§2) HUVEC cells were lysed in triZOL reagens (Invitrogen) and total RNA isolated according to manufacturers' instruction. 1 μg total RNA per sample was reverse transcribed using the FirstAid Reverse Transcription Kit (ThermoFisher). Copy-DNA equivalents of 5 ng total RNA were amplified on a ViiA7 Real-time PCR system (ThermoFisher, Waltham, Mass.) using iTaq Universal SYBR Green Supermix (Bio-Rad, Hercules, Calif.) and primers specific for tumor necrosis factor alpha (TNFα; sense 5′-[…]-3′, antisense 5′-[…]-3′), interleukin 1 beta (IL-1β; sense 5′-[…]-3′, antisense 5′-[…]-3′), interleukin-6 (IL-6; sense 5′-[…]-3′, antisense 5′-[…]-3′) and beta actin (ACTB; sense 5′-[…]-3′, antisense 5′-[…]-3′) as loading control. Amplification was performed for 40 cycles of 95° C. for 30 s, 60° C. for 1 min. Relative mRNA expression was calculated according to the δδCt-method.

NO production in HUVEC = test: Endothelial NO production (nitrate in conditioned medium), basal and after LPS; assay type: cell-based, Human; settings: 10 μM pre-treatment, LPS 100 ng/ml for 24 hours
Method: as §1
Cellular production of NO was approximated by measuring nitrate concentrations in culture media using the Measure-IT™ High-Sensitivity Nitrite Assay Kit (#M36051, ThermoFisher) according to manufacturer's instructions. […] Therefore, nitrate concentrations in conditioned media are a good approximate to assess cellular NO production. 50 μl conditioned medium derived from a single 96-wells plate well was used per assay and normalized against protein concentration. All experiments were performed in quadruplicate.
Endotoxins suppress endothelial NO production by limiting the activity of eNOS. HUVEC were pre-treated with vehicle (DMSO), BN-80933, SUL-138, or SUL-150 or (all 10 μM) prior to endotoxin (LPS 100 ng/ml) exposure for 24 hours. The nitrate levels in the conditioned medium from endothelial cells exposed to LPS averaged at 160 pmol/mg protein (˜33% reduction versus non LPS exposed HUVEC, p=0.002), which was lower than basal control levels. BN-80933 further suppressed the nitrate levels in the conditioned medium (FIG. 7A) to an average of 90 pmol/mg protein (p=0.008).

[2] = tested on: NO production in RAW264.7 macrophages; test: Macrophage NO production (nitrate in conditioned medium), basal and after LPS; assay type: cell-based, Mouse
Method: Mouse macrophage RAW264.7 cells (ATCC #TIB-71) were maintained in DMEM medium containing 10% fetal bovine serum, and 1% Penicillin-Streptomycin solution (Sigma-Aldrich). […] For all experiments, RAW264.7 cells were seeded at 0.5·10^5 cells/cm^2 and allowed to adhere for 24 hours. Cellular production of NO was approximated by measuring nitrate concentrations in culture media using the Measure-IT™ High-Sensitivity Nitrite Assay Kit (#M36051, ThermoFisher) according to manufacturer's instructions. […] Therefore, nitrate concentrations in conditioned media are a good approximate to assess cellular NO production. 50 μl conditioned medium derived from a single 96-wells plate well was used per assay and normalized against protein concentration. All experiments were performed in quadruplicate. LPS induces macrophage NO production by activating iNOS. RAW264.7 macrophages were pre-treated with vehicle (DMSO), BN-80933, SUL-138, or SUL-150 or (all 10 μM) prior to endotoxin (LPS 100 ng/ml) exposure for 24 hours. The nitrate levels in the conditioned medium from LPS exposed RAW264.7 macrophages averaged at 83 pmol/mg protein (˜16-fold increase versus non-exposed RAW264.7 cells, p=0.001).

IL-1β mRNA expression [3] = test: Endothelial inflammatory activation after endotoxin, IL-1β mRNA (Example 5); assay type: cell-based, Human; settings: HUVEC; 10 μM for 30 min
Method: as §1, §2

TNFα mRNA expression [4] = test: Inhibition of LPS-induced TNFα mRNA expression in HUVEC; assay type: cell-based, Human; settings: 10 μM for 30 min, then LPS 24 hours
Method: as §1
(§3) HUVEC and NRK52E cells were pre-incubated with SUL compounds (10 μM) for 30 min and subsequently exposed to LPS for 24 hours under standard culture conditions. Cells were lysed in triZOL reagens (Invitrogen) and total RNA isolated according to manufacturers' instruction. 1 μg total RNA per sample was reverse transcribed using the FirstAid Reverse Transcription Kit (ThermoFisher). Copy-DNA equivalents of 5 ng total RNA were amplified on a ViiA7 Real-time PCR system (ThermoFisher, Waltham, Mass.) using iTaq Universal SYBR Green Supermix (Bio-Rad, Hercules, Calif.) and primers specific for tumor necrosis factor alpha, interleukin 1 beta, interleukin-6 and beta actin as loading control. Amplification was performed for 40 cycles of 95° C. for 30 s, 60° C. for 1 min. Relative mRNA expression was calculated as 2^−(Cq^gene^−Cq^reference^) and normalized to unstimulated control cells (100% inhibition) and vehicle-treated and LPS exposed cells (0% inhibition). The following primers were used: […]

[5] = tested on: cytoplasmic oxidative stress in HUVEC; test: LPS-induced cellular superoxide in HUVEC (DHE); assay type: cell-based, Human; settings: 10 μM for 30 min, LPS 100 ng/ml 24 hours
Method: as §1
(§4) The production of cellular and mitochondrial oxidative stress was measured using fluorescent probes for cellular and mitochondrial superoxide, i.e. dihydroethidium (DHE) and MitoSox (ThermoFisher), respectively. HUVEC were incubated with BN-80933, SUL-138 or SUL-150 (all 10 μM) for 30 min. Next, HUVEC were exposed to LPS (100 ng/ml) for an additional 24 hours. In the final hour of incubation, 2.5 μM of DHE or MitoSox was applied to each sample. HUVEC were washed in PBS and fixed in 4% paraformaldehyde at room temperature for 15 min. Nuclear staining was performed by 5 μM […] (DAPI) and fluorescence intensity of the samples was recorded in a CLARIOStar Plus plate reader (BMG Labtech) equipped with the appropriate filter sets. Fluorescence recordings for DHE and MitoSox were corrected for DAPI fluorescence. All experiments were performed in quadruplicate.

IL-6 mRNA expression [6] = test: Inhibition of LPS-induced IL-6 mRNA expression in HUVEC; assay type: cell-based, Human; settings: 10 μM for 30 min, then LPS 24 hours
Method: as §1, §3

TNFα mRNA expression [7] = test: Endothelial inflammatory activation after endotoxin, TNFα mRNA (Example 5); assay type: cell-based, Human; settings: HUVEC; 10 μM for 30 min
Method: as §1, §2

IL-1β mRNA expression [8] = test: Inhibition of LPS-induced IL-1β mRNA expression in HUVEC; assay type: cell-based, Human; settings: 10 μM for 30 min, then LPS 24 hours
Method: as §1, §3

[9] = tested on: mitochondrial oxidative stress in HUVEC; test: LPS-induced mitochondrial superoxide in HUVEC (MitoSox); assay type: cell-based, Human; settings: 10 μM for 30 min, LPS 100 ng/ml 24 hours
Method: as §1, §4

HUVEC = test: Cell viability after hypothermia-rewarming stress (Neutral Red); assay type: cell-based, Human; settings: 10 μM for 1 hour, 4° C. for 24 hours followed by 37° C. for 3 hours
Method: as §1
HUVEC were pre-treated with BN-80933, SUL-138 or SUL-150 (all 10 μM) for 1 hour in a humidified incubator at 37° C. Following pre-treatment, HUVEC were placed in a cold room (2-8° C.) for 24 hours and subsequently placed back at 37° C. for a 3 hour rewarming period. After 1 hour of rewarming, cell culture medium was replaced by prewarmed and filtered 0.4 mg/mL Neutral Red (#N463 8, Sigma-Aldrich) in culture medium. After the remaining 2 hour rewarming period, HUVEC were washed with PBS and NRU was solubilized in 100 μL resorption solution (50% ethanol, 1% ascetic acid in dH2O). The absorbance was measured at a wavelength of 550 nm on a BioTek ELx808 plate reader. The recorded OD550 nm values were normalized to control samples that were maintained at 37° C. at all times, which were assumed to be 100% viable.

TNFα mRNA expression [10] = test: Inhibition of LPS-induced TNFα mRNA expression in NRK52E; assay type: cell-based, Rat; settings: 10 μM for 30 min, then LPS 24 hours
Method: (§5) Rat kidney epithelial cells (ATCC #CRL-1571) were maintained in DMEM medium containing 10% fetal bovine serum, and 1% Penicillin-Streptomycin solution (Sigma-Aldrich). NRK52E cells were passaged by trypsinization when the cultures reached a confluency of 70%. For all experiments, NRK52E cells were seeded at 0.6·10^5 cells/cm^2 and allowed to adhere for 24 hours.
as §3

[11] = tested on: sepsis induction in Drosophila melanogaster (Staphylococcus aureus); test: S. aureus sepsis in flies, survival and negative geotaxis; assay type: in vivo; settings: flies with S. aureus sepsis
Method: W1118 flies were bred and housed at 25° C. with a 12 h:12 h light/dark-cycle. Flies were kept in vials containing approximately 5 mL of standard yeast-cornmeal medium. Flies kept as a stock were flipped to fresh vials weekly. The used yeast-cornmeal medium was prepared to the instructions of Stocker and Gallant's ‘Drosophila Methods and Protocols’ and consisted of 100 grams yeast, 75 grams glucose, 8 grams agar, 55 grams cornmeal, and 10 grams wheat flour per litre of water. After boiling, phosphoric acid and propionic acid were added to the mixture to prevent fungal growth.
Staphylococcus aureus (S. aureus) was aerobically cultured overnight in 2.5% tryptic soy broth (TSB) at 37° C. with continuous rotation (200 rounds per minute), from an S. aureus glycerol stock kept at −80° C. For each experiment, a fresh culture was prepared one day prior to the experiment. For bacterial infection, optical density (OD) was measured the following day at 600 nm. Clean TSB was used as OD=0.00 and the bacterial culture was diluted to OD=2.20 with PBS. Next, 1.0 mL of the bacterial culture (OD=2.20) was centrifuged at 14,000 g for 1 minute, the supernatant was discarded, and the bacterial pellet resuspended in 1.0 mL PBS. Serial dilutions (5× and 25× diluted in PBS with optical densities of approximately 1.05 and 0.25, respectively) were used in the appropriate experiments. […]

IL-6 mRNA expression [12] = test: Inhibition of LPS-induced IL-6 mRNA expression in NRK52E; assay type: cell-based, Rat; settings: 10 μM for 30 min, then LPS 24 hours
Method: as §5, §3

SMILES: Cc1c(C)c2c(c(C)c1O)CC[C@](C)(C(=O)N1CCNCC1)O2 [SUL-150, (R)-(6-hydroxy-2,5,7,8-tetramethylchroman-2-yl)(piperazin-1-yl)methanone]
- LPS-induced mRNA expression of IL-6 (IL-6 mRNA expression [1]): precluded the LPS-induced increase in IL-1β and IL-6
- nitrate levels in the conditioned medium after LPS (NO production in HUVEC): mitigated the LPS-induced reduction in nitrate levels and their levels did not change from basal nitrate level
- LPS-induced increase in extracellular nitrate level ([2]; 10 μM pre-treatment, LPS 100 ng/ml for 24 hours): Neither SUL-138 nor SUL-150 strongly suppressed the LPS-induced increase in nitrate production
- basal production of extracellular nitrate ([2]; no LPS, 10 μM): Neither BN-80933, SUL-138, nor SUL-150 affected the basal production of extracellular nitrate
- LPS-induced mRNA expression of IL-1β (IL-1β mRNA expression [3]): precluded the LPS-induced increase in IL-1β and IL-6
- inhibition of LPS-induced mRNA expression of TNFα (TNFα mRNA expression [4]): 79.8 ± 4.1 %
- LPS-induced cytoplasmic oxidative stress (DHE) [5]: mitigates the induction of cytoplasmic oxidative stress
- inhibition of LPS-induced mRNA expression of IL-6 (IL-6 mRNA expression [6]): 69.3 ± 3.9 %
- LPS-induced mRNA expression of TNFα (TNFα mRNA expression [7]): precludes the induction of mRNA expression of the pro-inflammatory cytokine TNFα
- inhibition of LPS-induced mRNA expression of IL-1β (IL-1β mRNA expression [8]): 78.9 ± 6.0 %
- LPS-induced mitochondrial oxidative stress (MitoSox) [9]: precluded the LPS-induced increase in mitochondrial oxidative stress
- reduction in cell viability versus normothermic control cells (HUVEC): ~15%

SMILES: Cc1c(C)c2c(c(C)c1O)CC[C@@](C)(C(=O)N1CCNCC1)O2 [SUL-151, (S)-(6-hydroxy-2,5,7,8-tetramethylchroman-2-yl)(piperazin-1-yl)methanone]
- inhibition of LPS-induced mRNA expression of TNFα (TNFα mRNA expression [10]): 72.1 ± 14.5 %
- Geotaxis ([11]; 3 mM SUL-151, 24 hr and 48 hr after induction): improved both at 24 hr and 48 hr
- Survival after 24 hr ([11]; 3 mM SUL-151 intrathoracic injection with the bacteria): 80%
- inhibition of LPS-induced mRNA expression of TNFα (TNFα mRNA expression [4]): 72.5 ± 3.2 %
- inhibition of LPS-induced mRNA expression of IL-6 (IL-6 mRNA expression [12]): 83.1 ± 8.3 %
- inhibition of LPS-induced mRNA expression of IL-6 (IL-6 mRNA expression [6]): 65.4 ± 4.6 %
- inhibition of LPS-induced mRNA expression of IL-1β (IL-1β mRNA expression [8]): 76.7 ± 1.2 %
